Assay results reported in ChEMBL document CHEMBL4359822, “Design, synthesis of 4,5-diazafluorene derivatives and their anticancer activity via targeting telomeric DNA G-quadruplex” (Eur J Med Chem, 2019).
Active and inactive are the calls of the source. The rule behind the calls is not given here.

Legend:
HepG2 [1] = experiment: Inhibition of cell migration in human HepG2 cells at 0.1 uM incubated for 48 hrs by wound healing assay relative to control; assay type: functional; conditions: HepG2, 48 h
A549 [2] = experiment: Inhibition of cell migration in human A549 cells at 0.4 uM incubated for 48 hrs by wound healing assay relative to control; assay type: functional; conditions: A549, 48 h
[3] = Binding affinity to Tel-26nt G-rich DNA (unknown origin) assessed as change in melting temperature at 2 uM by UV-vis spectrophotometry
HepG2 [4] = experiment: Inhibition of cell migration in human HepG2 cells at 0.4 uM incubated for 48 hrs by wound healing assay relative to control; assay type: functional; conditions: HepG2, 48 h
AGS [5] = experiment: Inhibition of cell migration in human AGS cells at 0.2 uM incubated for 48 hrs by wound healing assay relative to control; assay type: functional
A549 [6] = experiment: Inhibition of cell migration in human A549 cells at 0.2 uM incubated for 48 hrs by wound healing assay relative to control; assay type: functional; conditions: A549, 48 h
[7] = Binding affinity to Tel-26nt G-rich DNA (unknown origin) assessed as change in melting temperature at 8 uM by UV-vis spectrophotometry (reference value: 38.33 +/- 0.07 degreeC)
AGS [8] = experiment: Inhibition of cell migration in human AGS cells at 0.4 uM incubated for 48 hrs by wound healing assay relative to control; assay type: functional
[9] = target: Telomerase reverse transcriptase (Homo sapiens) (UniProt O14746); experiment: Inhibition of telomerase activity in human A549 cells at 2 to 8 uM by TRAP assay; assay type: cell-based
[10] = Binding affinity to Tel-26nt G-rich DNA (unknown origin) assessed as change in melting temperature at 2 uM by UV-vis spectrophotometry (reference value: 38.33 +/- 0.07 degreeC)
HepG2 [11] = experiment: Inhibition of cell migration in human HepG2 cells at 0.2 uM incubated for 48 hrs by wound healing assay relative to control; assay type: functional; conditions: HepG2, 48 h
[12] = Binding affinity to Tel-26nt G-rich DNA (unknown origin) at => 3 uM incubated for 24 hrs by EMSA
MCF7 [13] = experiment: Antiproliferative activity against human MCF7 cells at 10 uM incubated for 36 hrs by CCK8 assay; assay type: functional, cell-based
AGS [14] = experiment: Antiproliferative activity against human AGS cells incubated for 36 hrs by CCK8 assay; assay type: functional, cell-based
HepG2 [15] = experiment: Antiproliferative activity against human HepG2 cells incubated for 36 hrs by CCK8 assay; assay type: functional, cell-based; conditions: HepG2, 36 h
MRC5 = experiment: Antiproliferative activity against human MRC5 cells incubated for 36 hrs by CCK8 assay; assay type: cell-based; conditions: MRC5, 36 h
[16] = Selectivity index, ratio of IC50 for human MRC5 cells to IC50 for human AGS cells; assay type: toxicity; conditions: MRC5 cells versus AGS cells, read-out: Ratio IC50
MCF7 [17] = experiment: Antiproliferative activity against human MCF7 cells incubated for 36 hrs by CCK8 assay; assay type: functional, cell-based; conditions: MCF7, 36 h
AGS [18] = experiment: Inhibition of cell migration in human AGS cells at 0.1 uM incubated for 48 hrs by wound healing assay relative to control; assay type: functional
MCF7 [19] = experiment: Inhibition of cell migration in human MCF7 cells at 0.1 uM incubated for 48 hrs by wound healing assay relative to control; assay type: functional; conditions: MCF7, 48 h
[20] = Binding affinity to Tel-26nt G-rich DNA (unknown origin) assessed as change in melting temperature by UV-vis spectrophotometry
A549 [21] = experiment: Antiproliferative activity against human A549 cells incubated for 36 hrs by CCK8 assay; assay type: functional, cell-based; conditions: A549, 36 h
[22] = Binding affinity to Tel-26nt G-rich DNA (unknown origin) incubated for 24 hrs by EMSA
MCF7 [23] = experiment: Inhibition of cell migration in human MCF7 cells at 0.2 uM incubated for 48 hrs by wound healing assay relative to control; assay type: functional; conditions: MCF7, 48 h
HepG2 [24] = experiment: Antiproliferative activity against human HepG2 cells at 10 uM incubated for 36 hrs by CCK8 assay; assay type: functional, cell-based
[25] = Selectivity index, ratio of IC50 for human MRC5 cells to IC50 for human MCF7 cells; assay type: toxicity; conditions: MRC5 cells versus MCF7 cells, read-out: Ratio IC50
AGS [26] = experiment: Antiproliferative activity against human AGS cells at 10 uM incubated for 36 hrs by CCK8 assay; assay type: functional, cell-based
[27] = Selectivity index, ratio of IC50 for human MRC5 cells to IC50 for human HEPG2 cells
MCF7 [28] = experiment: Inhibition of cell migration in human MCF7 cells at 0.4 uM incubated for 48 hrs by wound healing assay relative to control; assay type: functional; conditions: MCF7, 48 h
A549 [29] = experiment: Antiproliferative activity against human A549 cells at 10 uM incubated for 36 hrs by CCK8 assay; assay type: functional, cell-based
[30] = Binding affinity to Tel-26nt G-rich DNA (unknown origin) assessed as change in melting temperature at 4 uM by UV-vis spectrophotometry (reference value: 38.33 +/- 0.07 degreeC)
A549 [31] = experiment: Inhibition of cell migration in human A549 cells at 0.1 uM incubated for 48 hrs by wound healing assay relative to control; assay type: functional; conditions: A549, 48 h
[32] = Selectivity index, ratio of IC50 for human MRC5 cells to IC50 for human A549 cells; assay type: toxicity; conditions: MRC5 cells versus A549 cells, read-out: Ratio IC50
[33] = Binding affinity to Tel-26nt C-rich DNA (unknown origin) at 24 uM incubated for 24 hrs by EMSA
[34] = Binding affinity to biotinylated Tel-26nt G-rich DNA (unknown origin) assessed as association rate constant by SPR analysis
[35] = Binding affinity to Tel-26nt G-rich DNA (unknown origin) assessed as change in melting temperature at 8 uM by UV-vis spectrophotometry
[36] = Selectivity ratio of binding affinity to biotinylated Tel26nt double stranded DNA (unknown origin) to binding affinity to biotinylated Tel-26nt G-rich DNA (unknown origin)
[37] = Binding affinity to 26-nt telomeric G-rich RNA (unknown origin) at 24 uM incubated for 24 hrs by EMSA
[38] = Binding affinity to biotinylated Tel26nt double stranded DNA (unknown origin) at 1:1 ratio of test compound to DNA by SPR analysis
[39] = Binding affinity to Tel26nt double stranded DNA (unknown origin) at 4 to 16 uM measured after each titration for 15 mins during 24 hrs incubation by circular dichroism analysis
[40] = target: Telomerase reverse transcriptase (Homo sapiens) (UniProt O14746); experiment: Inhibition of telomerase activity in human A549 cells at 8 uM by TRAP assay relative to control; assay type: cell-based
[41] = Binding affinity to biotinylated Tel-26nt G-rich DNA (unknown origin) assessed as dissociation rate constant by SPR analysis
[42] = Binding affinity to biotinylated Tel-26nt G-rich DNA (unknown origin) assessed as association equilibrium constant by SPR analysis
[43] = Binding affinity to Tel-26nt G-rich DNA (unknown origin) at 12 uM incubated for 24 hrs by EMSA
[44] = Binding affinity to Tel-26nt G-rich DNA (unknown origin) at 0.25 :1 to 6 : 1 ratio of test compound to DNA measured after each titration for 15 mins during 24 hrs incubation by circular dichroism analysis
[45] = Binding affinity to Tel-26nt G-rich DNA (unknown origin) at 10 uM by UV-Vis spectrophotometric analysis
[46] = Binding affinity to biotinylated Tel26nt double stranded DNA (unknown origin) assessed as association equilibrium constant by SPR analysis
[47] = Binding affinity to Tel26nt double stranded DNA (unknown origin) at 24 uM incubated for 24 hrs by EMSA
[48] = Binding affinity to Tel-26nt mutated-single-stranded DNA (unknown origin) at 24 uM incubated for 24 hrs by EMSA
[49] = Binding affinity to biotinylated Tel26nt double stranded DNA (unknown origin) assessed as dissociation rate constant by SPR analysis
[50] = Binding affinity to biotinylated Tel-26nt G-rich DNA (unknown origin) at 1:1 ratio of test compound to DNA by SPR analysis
[51] = Binding affinity to Tel-26nt mutated-single-stranded DNA (unknown origin) at 4 to 16 uM measured after each titration for 15 mins during 24 hrs incubation by circular dichroism analysis
[52] = Binding affinity to biotinylated Tel26nt double stranded DNA (unknown origin) assessed as association rate constant by SPR analysis
[53] = Binding affinity to Tel-26nt G-rich DNA (unknown origin) at 4 to 16 uM measured after each titration for 15 mins during 24 hrs incubation by circular dichroism analysis

Telomerase reverse transcriptase (Homo sapiens), sequence (O14746 whole entry): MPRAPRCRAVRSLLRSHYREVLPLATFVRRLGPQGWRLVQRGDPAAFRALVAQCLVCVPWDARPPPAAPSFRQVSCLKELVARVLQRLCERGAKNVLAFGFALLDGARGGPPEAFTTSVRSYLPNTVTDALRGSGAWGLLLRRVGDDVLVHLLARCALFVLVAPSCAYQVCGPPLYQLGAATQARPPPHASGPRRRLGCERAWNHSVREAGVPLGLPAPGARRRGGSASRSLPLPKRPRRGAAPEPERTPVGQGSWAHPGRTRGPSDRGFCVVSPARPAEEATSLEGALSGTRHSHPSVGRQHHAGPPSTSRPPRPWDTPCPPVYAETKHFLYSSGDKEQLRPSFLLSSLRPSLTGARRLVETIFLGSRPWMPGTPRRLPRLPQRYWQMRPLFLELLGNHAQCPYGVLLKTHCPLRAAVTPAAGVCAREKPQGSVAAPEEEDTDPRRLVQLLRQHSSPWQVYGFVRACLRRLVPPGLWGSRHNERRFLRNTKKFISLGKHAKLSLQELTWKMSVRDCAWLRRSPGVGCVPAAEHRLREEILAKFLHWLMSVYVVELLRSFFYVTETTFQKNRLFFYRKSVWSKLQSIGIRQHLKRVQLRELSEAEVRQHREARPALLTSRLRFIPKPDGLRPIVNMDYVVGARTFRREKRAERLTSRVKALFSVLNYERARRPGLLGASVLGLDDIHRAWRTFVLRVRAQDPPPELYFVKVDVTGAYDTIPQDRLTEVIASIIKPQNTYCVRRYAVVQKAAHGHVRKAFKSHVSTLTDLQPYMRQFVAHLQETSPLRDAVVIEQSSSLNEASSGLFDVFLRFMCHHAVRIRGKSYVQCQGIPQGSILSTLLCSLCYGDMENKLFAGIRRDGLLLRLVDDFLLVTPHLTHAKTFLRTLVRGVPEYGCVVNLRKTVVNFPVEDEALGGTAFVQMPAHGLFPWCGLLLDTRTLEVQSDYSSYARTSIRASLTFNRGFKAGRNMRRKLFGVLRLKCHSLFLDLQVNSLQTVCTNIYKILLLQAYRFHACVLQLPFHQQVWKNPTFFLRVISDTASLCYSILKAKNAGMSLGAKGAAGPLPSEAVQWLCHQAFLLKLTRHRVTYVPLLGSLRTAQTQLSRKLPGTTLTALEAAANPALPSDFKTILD

Q: For `CN(C)CCCn1cc(C=C2c3cccnc3-c3ncccc32)c(-c2ccc(Cl)cc2)n1`, which inhibition at 0.1 µM (HepG2 [1]) is on record?
A: 19.4%

Q: What about the inhibition at 0.4 µM (A549 [2]) of the same compound?
A: 78%

Q: What about the ΔTm [3] of the same compound?
A: 4.82 °C

Q: And the inhibition at 0.4 µM (HepG2 [4])?
A: 62.3%

Q: And the inhibition at 0.2 µM (AGS [5])?
A: 56%

Q: What about the inhibition at 0.2 µM (A549 [6]) of the same compound?
A: 54.5%

Q: And the Tm [7]?
A: 43.4 °C

Q: And the inhibition at 0.4 µM (AGS [8])?
A: 80%

Q: And the inhibition [9]?
A: Active

Q: And the Tm [10]?
A: 45.6 °C

Q: And the inhibition at 0.2 µM (HepG2 [11])?
A: 43.2%

Q: What about the Activity [12] of the same compound?
A: Active

Q: And the “growth inhibition (GI)” value (MCF7 [13])?
A: Active

Q: And the IC50 (AGS [14])?
A: 5.52 µM

Q: And the IC50 (HepG2 [15])?
A: 6.43 µM

Q: And the IC50 (MRC5)?
A: 9.81 µM

Q: And the selectivity ratio [16]?
A: 1.78

Q: What about the IC50 (MCF7 [17]) of the same compound?
A: 11.8 µM

Q: And the inhibition at 0.1 µM (AGS [18])?
A: 37.5%

Q: And the inhibition at 0.1 µM (MCF7 [19])?
A: 17.9%

Q: What about the deltaTm [20] of the same compound?
A: Dose-dependent effect

Q: What about the IC50 (A549 [21]) of the same compound?
A: 4.15 µM

Q: What about the Activity [22] of the same compound?
A: Dose-dependent effect

Q: And the inhibition at 0.2 µM (MCF7 [23])?
A: 41.2%

Q: What about the “growth inhibition (GI)” value (HepG2 [24]) of the same compound?
A: Active

Q: What about the selectivity ratio [25] of the same compound?
A: 0.83

Q: What about the “growth inhibition (GI)” value (AGS [26]) of the same compound?
A: Active

Q: What about the “Ratio IC50” value [27] of the same compound?
A: 1.52

Q: And the inhibition at 0.4 µM (MCF7 [28])?
A: 54.8%

Q: And the “growth inhibition (GI)” value (A549 [29])?
A: Active

Q: What about the Tm [30] of the same compound?
A: 45.7 °C

Q: What about the inhibition at 0.1 µM (A549 [31]) of the same compound?
A: 21.2%

Q: What about the selectivity ratio [32] of the same compound?
A: 2.36

Q: Which results are given for `CN(C)CCCn1cc(C=C2c3cccnc3-c3ncccc32)c(-c2ccc(Br)cc2)n1`?
A: inhibition at 0.1 µM (HepG2 [1]): 27.9%; Activity [33]: inactive; inhibition at 0.4 µM (A549 [2]): 84.5%; inhibition at 0.4 µM (HepG2 [4]): 69.3%; inhibition at 0.2 µM (AGS [5]): 71.7%; Ka [34]: 6.68 ×10⁶ /M/s; inhibition at 0.2 µM (A549 [6]): 61.7%; Tm [7]: 44.9 °C; inhibition at 0.4 µM (AGS [8]): 89.8%; inhibition [9]: Active; Tm [10]: 48.6 °C; inhibition at 0.2 µM (HepG2 [11]): 49.3%; ΔTm [35]: 24.3 °C; Selectivity ratio [36]: > 1000; Activity [37]: inactive; Activity [12]: Active; Activity [38]: inactive; growth inhibition (GI) (MCF7 [13]): Active; IC50 (AGS [14]): 1.81 µM; IC50 (HepG2 [15]): 3.48 µM; Activity [39]: inactive; IC50 (MRC5): 7.92 µM; selectivity ratio [16]: 4.25; inhibition [40]: 61.7%; Kd [41]: 9.49 ×10⁻² /s; IC50 (MCF7 [17]): 5.27 µM; KA [42]: 7.04 ×10⁷ /M; Activity [43]: Active; inhibition at 0.1 µM (AGS [18]): 52.2%; inhibition at 0.1 µM (MCF7 [19]): 31.9%; Activity [44]: Active; Activity [45]: Active; KA [46]: 4.38 ×10⁴ /M; deltaTm [20]: Dose-dependent effect; Activity [47]: Active; IC50 (A549 [21]): 1.13 µM; Activity [22]: Dose-dependent effect; Activity [48]: inactive; inhibition at 0.2 µM (MCF7 [23]): 50.3%; growth inhibition (GI) (HepG2 [24]): Active; Kd [49]: 2.58 ×10⁻² /s; selectivity ratio [25]: 1.46; growth inhibition (GI) (AGS [26]): Active; Ratio IC50 [27]: 2.21; inhibition at 0.4 µM (MCF7 [28]): 67.3%; growth inhibition (GI) (A549 [29]): Active; Activity [50]: Active; Activity [51]: inactive; Tm [30]: 53.1 °C; inhibition at 0.1 µM (A549 [31]): 22.3%; Ka [52]: 1.13 ×10³ /M/s; Activity [53]: Active; selectivity ratio [32]: 7.01
